Data published in patent US20260364168A1, “USE OF PROTEIN KINASE C (PKC) ACTIVATING COMPOUNDS AS AN ADJUVANT” (priority 2022, published 2026).
Read-outs that look alike come from different tables or passages of the source.

Key:
[1] = tested on: NFκB; assay: NFκB luciferase reporter gene assay in HeLa-NFκB luciferase reporter cell line; type: cell-based; conditions: 16 h, 37 °C, luciferase/CTG normalized; read-out: NFκB-luc HeLa cells EC50
Procedure: The PKC activator compounds were evaluated for their effect on NFκB expression using a luciferase reporter gene expression system. (The indicators “K-101,” “K101” and “K-101A” may be used interchangeably in this disclosure and appended figures).
A HeLa-NFκB luciferase reporter cell line (Wuxi Biology) was used to assess a group of PKC activator compounds for their ability to activate NFκB-driven transcription. Two sets of cells at 20000 cells/well were plated, grown overnight, and then treated for 16 h at 37 °C with DMSO, 6 doses of each compound, or TNF-α (final concentration of 10 ng/mL, positive control) in triplicates. One set of cells was assayed for luciferase activity (Promega, Cat #E1500) and the other set was assayed to determine the number of viable cells (for cell number normalization) using CellTiter-Glo (CTG) kit (Promega, Cat #G7570) according to manufacture's procedures. Normalized data (luciferase value/CTG value) were analyzed using GraphPad Prism5 to calculate EC50 for each compound (see Table 3).

[2] = tested on: mouse splenocytes; assay: IFN-γ ELISpot in mouse splenocytes; type: cell-based, C57BL/6J mice
Procedure: Production of IFN-γ in response to infection or other stimuli is a hallmark of innate and adaptive immunity. To measure the effect of direct immune stimulation, freshly isolated splenocytes from three C57BL/6J mice were seeded in ELISpot plates pre-coated with anti-IFN-γ antibody (Mabtech, #3321-4AST-2) at 1 million splenocytes per well in OptiVitro® T Cell Serum-free Medium (Excellbio, Cat #TE000-N021). […] Detection of the IFN-γ spot-forming cells was performed according to the manufacture's protocol. Briefly, cells were removed from the ELISpot plates. After washing with PBS, the ELISpot plates were incubated with […] of the R4-6A2-biotin detection antibody for 2 hours at room temperature (RT) and then with streptavidin-ALP (1:1000) at RT for 1 hour. BCIP/NBT chromogen substrate solution was added to the plates until distinct spots emerged. The spots (IFN-γ-secreting cells) were counted using an AID ELISPOT reader.

[3] = tested on: human PBMC cells; assay: cytokine/chemokine gene expression (TaqMan) in human PBMC; conditions: 4 h
Procedure: Materials and methods: 100 million frozen human PBMC cells were purchased from Allcells (100 million/vial). The cells were thawed and recovered for one day before 1.5-1.8 million cells in 900 μl RPMI1640 with 10% heat-inactivated FBS were seeded in each well of 24-well plates. Various compounds in DMSO stock (500×) were diluted 50-fold with the same media to make 10× compound stock for most compounds. 1 μL of 5 mg/mL PMA was diluted to 99 μL of the media to make 50 μg/mL PMA. For PMA with ionomycin treatment condition, 1.5 μL of 50 μg/mL PMA and 3 μL of 500 μg/mL ionomycin were added to 145.5 μL of the media to make 10× compound stock. Sources of the compounds are as follows: PMA from Abcam (Abcam #ab120297); Ionomycin from Sigma (Sigma #I0634); Resiquimod from Sellect Chem. (Selleckchem #S8133); and LPS from Sigma (Sigma #L6143).
Each treatment condition was performed in duplicates. After treatment, mRNA was extracted from cells and samples from duplicates were combined for TaqMan gene expression assays (ThermoFisher) in triplicates. Expression of 19 genes (IL-1β, IL-2, IL-4, IL-6, IL-8, IL-10, IL-13, IL-18, IL-12p70/IL-12A, IL-12p40/IL-12B, IFN-α, IFN-γ, GM-CSF/CSF2, CCL2/MCP-1, MIP1a/CCL3, TNF-α, MX1, OAS1, ISG15) along with two housekeeping gene controls, 18S and GAPDH, was determined. Target gene expression in each sample was determined by relative quantification (RQ) using the comparative Ct (ΔΔCT) method. This method measures the Ct difference (ΔCT) between target gene and the housekeeping genes (18S & GAPDH), then compares the ΔCT values of treated samples to DMSO-treated control samples. The mean ΔCT value of the DMSO-treated control from two independent DMSO-treated control samples was used. The relative expression level of target gene was calculated by using the equation:
relative expression=2^−ΔΔCT

[4] = tested on: DC cells; conditions: Yan et al. 2010; cited from earlier work
[5] = tested on: antigen-specific T cell responses; conditions: Yan et al. 2010; cited from earlier work
[6] = tested on: NFκB; conditions: in vitro, TLR5-dependent and -independent; Oh et al. 2014; cited from earlier work
[7] = tested on: antigen-specific antibody as well as T cell responses; conditions: in vivo; Oh et al. 2014; cited from earlier work
[8] = 0.03 μM, vs DMSO, 240 min, 0.03 µM
[9] = 0.10 μM, vs DMSO, 240 min, 0.1 µM

Which EC50 [1] does the source give for `CC1=C[C@H]2[C@@]3(O)[C@H](C)C[C@]4(OC(=O)C(N)CCCCCCc5ccccc5)[C@H]([C@@H]3C=C(CO)C[C@]2(O)C1=O)C4(C)C` (some centres unmarked) here?
Its EC50 is 10 to 30 nM.

What about the “IFN-γ secreting cells/million splenocytes” value ([2]; 60 nM, 24 h, Mouse 1) of the same compound?
The value was 245 cells/million splenocytes.

And the “IFN-γ secreting cells/million splenocytes” value ([2]; 60 nM, 24 h, Mouse 2)?
The value was 137 cells/million splenocytes.

What about the “IFN-γ secreting cells/million splenocytes” value ([2]; 60 nM, 24 h, Mouse 3) of the same compound?
Its value is 110 cells/million splenocytes.

And the “IFN-γ secreting cells/million splenocytes” value ([2]; 200 nM, 24 h, Mouse 1)?
Its value is “saturated”.

What about the “IFN-γ secreting cells/million splenocytes” value ([2]; 200 nM, 24 h, Mouse 2) of the same compound?
The value was “saturated”.

What about the “IFN-γ secreting cells/million splenocytes” value ([2]; 200 nM, 24 h, Mouse 3) of the same compound?
Its value is “saturated”.

And the “dose-response of IFN-γ production” value ([2]; 60 and 200 nM, in words)?
Its value is “a trend of dose-response”.

What about the minimal effective concentration ([2]; Splenocyte, mouse splenocytes, 24 h, read-out: concentration (as low as) at which IFN-γ production was stimulated) of the same compound?
Its minimal effective concentration is 0.06 µM.

And the “ISG15 gene relative expression” value ([3]; 0.03 μM, vs DMSO)?
The value was 0.97.

And the “MX1 gene relative expression” value ([3]; 0.03 μM, vs DMSO)?
Its value is 0.65.

What about the “CCL2 gene relative expression” value [3, 8] of the same compound?
Its value is 4.55.

And the “GM-CSF gene relative expression” value [3, 8]?
Its value is 1.89.

What about the “IFN-α gene relative expression” value [3, 8] of the same compound?
The value was 1.66.

And the “IFNγ gene relative expression” value [3, 8]?
The value was 1.62.

What about the “IL-1β gene relative expression” value [3, 8] of the same compound?
Its value is 0.54.

What about the “IL-2 gene relative expression” value [3, 8] of the same compound?
Its value is 1.71.

And the “IL-6 gene relative expression” value [3, 8]?
The value was 0.74.

What about the “IL-8 gene relative expression” value [3, 8] of the same compound?
The value was 0.80.

What about the “IL-10 gene relative expression” value [3, 8] of the same compound?
The value was 1.27.

What about the “IL-12p40 gene relative expression” value [3, 8] of the same compound?
The value was 0.74.

What about the “IL-12p70 gene relative expression” value [3, 8] of the same compound?
The value was 1.02.

What about the “IL-13 gene relative expression” value [3, 8] of the same compound?
The value was 0.40.

And the “IL-18 gene relative expression” value [3, 8]?
Its value is 0.47.

What about the “MIP1a (CCL3) gene relative expression” value [3, 8] of the same compound?
Its value is 1.86.

What about the “OAS1 gene relative expression” value [3, 8] of the same compound?
The value was 0.64.

And the “TNF-α gene relative expression” value [3, 8]?
The value was 1.38.

And the “CCL2 gene relative expression” value [3, 9]?
Its value is 3.12.

And the “GM-CSF gene relative expression” value [3, 9]?
Its value is 7.74.

What about the “IFN-α gene relative expression” value [3, 9] of the same compound?
The value was 0.73.

And the “IFNγ gene relative expression” value [3, 9]?
Its value is 3.47.

And the “IL-1β gene relative expression” value [3, 9]?
Its value is 1.58.

And the “IL-2 gene relative expression” value [3, 9]?
The value was 7.65.

What about the “IL-4 gene relative expression” value [3, 9] of the same compound?
The value was 1.61.

What about the “IL-8 gene relative expression” value [3, 9] of the same compound?
Its value is 0.53.

And the “IL-10 gene relative expression” value [3, 9]?
The value was 0.48.

And the “IL-12p70 gene relative expression” value [3, 9]?
Its value is 0.93.

And the “IL-13 gene relative expression” value [3, 9]?
Its value is 47.45.

What about the “IL-18 gene relative expression” value [3, 9] of the same compound?
The value was 0.09.

What about the “ISG15 gene relative expression” value [3, 9] of the same compound?
The value was 1.16.

What about the “MIP1a (CCL3) gene relative expression” value [3, 9] of the same compound?
The value was 2.39.

And the “MX1 gene relative expression” value [3, 9]?
The value was 0.72.

And the “OAS1 gene relative expression” value [3, 9]?
Its value is 0.55.

What about the “TNF-α gene relative expression” value [3, 9] of the same compound?
The value was 4.04.

What about the fold induction at 0.3 µM ([3]; Homo sapiens, PBMC, read-out: CCL2 gene relative expression, 0.3 μM, 4 h, vs DMSO) of the same compound?
The fold induction at 0.3 µM was 2.09.

What about the fold induction at 0.3 µM ([3]; Homo sapiens, PBMC, read-out: GM-CSF gene relative expression, 0.3 μM, 4 h, vs DMSO) of the same compound?
Its fold induction at 0.3 µM is 10.5.

What about the fold induction at 0.3 µM ([3]; Homo sapiens, PBMC, read-out: IFN-α gene relative expression, 0.3 μM, 4 h, vs DMSO) of the same compound?
The fold induction at 0.3 µM was 0.95.

What about the fold induction at 0.3 µM ([3]; Homo sapiens, PBMC, read-out: IFNγ gene relative expression, 0.3 μM, 4 h, vs DMSO) of the same compound?
Its fold induction at 0.3 µM is 18.6.

What about the fold induction at 0.3 µM ([3]; Homo sapiens, PBMC, read-out: IL-1β gene relative expression, 0.3 μM, 4 h, vs DMSO) of the same compound?
The fold induction at 0.3 µM was 1.53.

And the fold induction at 0.3 µM ([3]; Homo sapiens, PBMC, read-out: IL-2 gene relative expression, 0.3 μM, 4 h, vs DMSO)?
The fold induction at 0.3 µM was 3.41.

What about the fold induction at 0.3 µM ([3]; Homo sapiens, PBMC, read-out: IL-4 gene relative expression, 0.3 μM, 4 h, vs DMSO) of the same compound?
The fold induction at 0.3 µM was 2.57.

What about the fold induction at 0.3 µM ([3]; Homo sapiens, PBMC, read-out: IL-6 gene relative expression, 0.3 μM, 4 h, vs DMSO) of the same compound?
The fold induction at 0.3 µM was 4.85.

And the fold induction at 0.3 µM ([3]; Homo sapiens, PBMC, read-out: IL-8 gene relative expression, 0.3 μM, 4 h, vs DMSO)?
Its fold induction at 0.3 µM is 0.59.

What about the fold induction at 0.3 µM ([3]; Homo sapiens, PBMC, read-out: IL-10 gene relative expression, 0.3 μM, 4 h, vs DMSO) of the same compound?
Its fold induction at 0.3 µM is 0.06.

And the fold induction at 0.1 µM ([3]; Homo sapiens, PBMC, read-out: IL-12p40 gene relative expression, 0.10 μM, 4 h, vs DMSO)?
Its fold induction at 0.1 µM is 0.45.

And the fold induction at 0.3 µM ([3]; Homo sapiens, PBMC, read-out: IL-12p40 gene relative expression, 0.3 μM, 4 h, vs DMSO)?
Its fold induction at 0.3 µM is 0.69.

What about the fold induction at 0.3 µM ([3]; Homo sapiens, PBMC, read-out: IL-12p70 gene relative expression, 0.3 μM, 4 h, vs DMSO) of the same compound?
Its fold induction at 0.3 µM is 0.61.

What about the fold induction at 0.3 µM ([3]; Homo sapiens, PBMC, read-out: IL-13 gene relative expression, 0.3 μM, 4 h, vs DMSO) of the same compound?
Its fold induction at 0.3 µM is 78.9.

What about the fold induction at 0.3 µM ([3]; Homo sapiens, PBMC, read-out: IL-18 gene relative expression, 0.3 μM, 4 h, vs DMSO) of the same compound?
Its fold induction at 0.3 µM is 0.04.

What about the fold induction at 0.3 µM ([3]; Homo sapiens, PBMC, read-out: ISG15 gene relative expression, 0.3 μM, 4 h, vs DMSO) of the same compound?
Its fold induction at 0.3 µM is 1.14.

What about the fold induction at 0.3 µM ([3]; Homo sapiens, PBMC, read-out: MIP1a (CCL3) gene relative expression, 0.3 μM, 4 h, vs DMSO) of the same compound?
The fold induction at 0.3 µM was 3.37.

And the fold induction at 0.3 µM ([3]; Homo sapiens, PBMC, read-out: MX1 gene relative expression, 0.3 μM, 4 h, vs DMSO)?
The fold induction at 0.3 µM was 0.57.

And the fold induction at 0.3 µM ([3]; Homo sapiens, PBMC, read-out: OAS1 gene relative expression, 0.3 μM, 4 h, vs DMSO)?
Its fold induction at 0.3 µM is 0.42.

What about the fold induction at 0.3 µM ([3]; Homo sapiens, PBMC, read-out: TNF-α gene relative expression, 0.3 μM, 4 h, vs DMSO) of the same compound?
The fold induction at 0.3 µM was 4.13.

With `CCC/C=C/C=C/C(=O)O[C@H]1/C(=C/C(=O)OC)C[C@H]2C[C@H]([C@@H](C)O)OC(=O)C[C@H](O)C[C@@H]3C[C@H](OC(C)=O)C(C)(C)[C@](O)(C[C@@H]4C/C(=C/C(=O)OC)C[C@H](/C=C/C(C)(C)[C@]1(O)O2)O4)O3` [Bryostatin] as the compound, how does the “chemokine expression in DC cells” value [4] read?
The value was “induces chemokine expression in DC cells”.

And the “antigen-specific T cell responses from a peptide-based vaccine” value [5]?
Its value is “stimulates an antigen-specific T cell responses”.

For `CCCCCCCCCCCCCC(=O)O[C@@H]1[C@@H](C)[C@@]2(O)[C@@H](C=C(CO)C[C@]3(O)C(=O)C(C)=C[C@@H]23)[C@@H]2C(C)(C)[C@]12OC(C)=O` [PMA, Phorbol 12-myristate 13-acetate], which “PKC-dependent NFκB activation” value [6] is on record?
Its value is “induce PKC-dependent NFκB activation”.

And the “antigen-specific antibody as well as T cell responses” value [7]?
Its value is “boosts antigen-specific antibody as well as T cell responses in vivo”.
